Data on 23 molecules can be found in US10344025B2, “GLS1 inhibitors for treating disease” (Board of Regents, The University of Texas System, priority 2014, dated 2019).

One may read the IC50 as the concentration that inhibits the measured activity by half. Usually EC50 stands for the concentration giving half of the maximal effect. Higher therefore signals weaker potency.

The target in test [1] is purified recombinant human GAC (GLS1) (Homo sapiens (Human), UniProt O94925). Description: GLS1 Enzymatic Activity Assay (dual-coupled enzymatic assay, resorufin/Amplex UltraRed readout).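 Also: glutamate from GAC coupled via glutamate oxidase and peroxidase to resorufin, read as fluorescence (ex 530, em 590 nm) kinetically or at 20 min, four-parameter logistic IC50 fit.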 It is filed as biochemical.
For test [2], the system named is A549 cells. As to the kind of experiment: Proliferation Assay (A549 viability, Cell Titer Fluor, 72 hours). As to conditions: Homo sapiens, A549, 72 h. The format is cell-based. In outline: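 A549 cells seeded at 1000 cells/well, rested 24 h, then exposed to compound in 0.5% DMSO for 72 h at 37 °C. Viability read by Cell Titer Fluor fluorescence; IC50 from four-parameter logistic fit.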

Sequence of purified recombinant human GAC (GLS1) (O94925 other isoform, or with tags, fused parts or gaps): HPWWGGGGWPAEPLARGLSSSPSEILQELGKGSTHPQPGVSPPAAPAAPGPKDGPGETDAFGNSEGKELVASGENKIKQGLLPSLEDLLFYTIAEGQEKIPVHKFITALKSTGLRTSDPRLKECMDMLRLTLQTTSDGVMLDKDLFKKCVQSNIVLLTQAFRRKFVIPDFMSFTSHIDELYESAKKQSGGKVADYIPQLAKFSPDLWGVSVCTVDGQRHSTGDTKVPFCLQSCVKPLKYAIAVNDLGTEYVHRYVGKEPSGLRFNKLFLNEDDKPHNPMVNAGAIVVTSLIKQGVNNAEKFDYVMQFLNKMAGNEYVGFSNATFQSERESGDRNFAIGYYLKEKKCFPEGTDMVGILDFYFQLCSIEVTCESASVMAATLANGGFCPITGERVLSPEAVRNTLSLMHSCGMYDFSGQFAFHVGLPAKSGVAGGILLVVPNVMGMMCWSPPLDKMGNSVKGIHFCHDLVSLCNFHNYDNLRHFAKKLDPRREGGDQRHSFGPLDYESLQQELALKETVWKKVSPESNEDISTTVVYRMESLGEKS

Consider `O=C(NCc1cccc(OC(F)F)c1)c1cn(CCCCn2cc(C(=O)NCc3cc(C(F)(F)F)ccn3)nn2)nn1` [Example 132, {4-[4-({[3-(difluoromethoxy)phenyl]methyl}carbamoyl)-1H-1,2,3-triazol-1-yl]butyl}-N-{[4-(trifluoromethyl)pyridin-2-yl]methyl}-1H-1,2,3-triazole-4-carboxamide], for which the concentration for half-maximal inhibition (IC50) in test [1] was under 100 nM. Besides, in test [2], the EC50 is under 100 nM.
Consider `O=C(NCc1cccc(C2CC2)c1)c1cn(CCCCn2cc(C(=O)NCc3cncc(C(F)(F)F)c3)nn2)nn1` [Example 133, 1-[4-(4-{[(3-cyclopropylphenyl)methyl]carbamoyl}-1H-1,2,3-triazol-1-yl)butyl]-N-{[5-(trifluoromethyl)pyridin-3-yl]methyl}-1H-1,2,3-triazole-4-carboxamide], for which the IC50 in test [1] is under 100 nM. The same molecule yielded an EC50 in test [2] of under 100 nM.
As for `O=C(NCc1cncc(C(F)(F)F)c1)c1cn(CCCCn2cc(C(=O)NCc3cc(C4CC4)ccn3)nn2)nn1` [Example 135, 1-[4-(4-{[(4-cyclopropylpyridin-2-yl)methyl]carbamoyl}-1H-1,2,3-triazol-1-yl)butyl]-N-{[5-(trifluoromethyl)pyridin-3-yl]methyl}-1H-1,2,3-triazole-4-carboxamide], in test [1], the IC50 is under 100 nM. This molecule also came in with an EC50 in test [2] of under 100 nM.
For `CC1(C)Oc2ccc(CNC(=O)c3cn(CCCCn4cc(C(=O)NCc5cncc(C(F)(F)F)c5)nn4)nn3)cc2O1` [Example 136, 1-[4-(4-{[(2,2-dimethyl-2H-1,3-benzodioxol-5-yl)methyl]carbamoyl}-1H-1,2,3-triazol-1-yl)butyl]-N-{[5-(trifluoromethyl)pyridin-3-yl]methyl}-1H-1,2,3-triazole-4-carboxamide], in test [1], the IC50 is under 100 nM. For the same molecule, in test [2], the EC50 was under 100 nM.
With `CC1(C)Oc2ccc(CNC(=O)c3cn(CCCCn4cc(C(=O)NCc5cc(C(F)(F)F)ccn5)nn4)nn3)cc2O1` [Example 137, 1-[4-(4-{[(2,2-dimethyl-2H-1,3-benzodioxol-5-yl)methyl]carbamoyl}-1H-1,2,3-triazol-1-yl)butyl]-N-{[4-(trifluoromethyl)pyridin-2-yl]methyl}-1H-1,2,3-triazole-4-carboxamide], in test [1], the IC50 was under 100 nM. Also, the EC50 in test [2] was under 100 nM.
Take `O=C(NCc1cccc(OC(F)(F)F)c1)c1cn(CCCCn2cc(C(=O)NC[C@@H](O)c3ccccc3)nn2)nn1` [Example 138, N-[(2S)-2-hydroxy-2-phenylethyl]-1-{4-[4-({[3-(trifluoromethoxy)phenyl]methyl}carbamoyl)-1H-1,2,3-triazol-1-yl]butyl}-1H-1,2,3-triazole-4-carboxamide]: the IC50 in test [1] lay in the range of 100 to 500 nM. In addition, the EC50 in test [2] lay within 100 to 500 nM.
For `O=C(NCc1cccc(OC(F)(F)F)c1)c1cn(CCCCn2cc(C(=O)NC[C@H](O)c3ccccc3)nn2)nn1` [Example 139, N-[(2R)-2-hydroxy-2-phenylethyl]-1-{4-[4-({[3-(trifluoromethoxy)phenyl]methyl}carbamoyl)-1H-1,2,3-triazol-1-yl]butyl}-1H-1,2,3-triazole-4-carboxamide], in test [1], the IC50 is 100 to 500 nM. The molecule also registered an EC50 in test [2] of 100 to 500 nM.
On to `O=C(NCc1cncc(C(F)(F)F)c1)c1cn(CCCCn2cc(C(=O)NCc3cncc(C(F)(F)F)c3)nn2)nn1` [Example 140, N-{[5-(trifluoromethyl)pyridin-3-yl]methyl}-1-{4-[4-({[5-(trifluoromethyl)pyridin-3-yl]methyl}carbamoyl)-1H-1,2,3-triazol-1-yl]butyl}-1H-1,2,3-triazole-4-carboxamide], for which, in test [1], the IC50 was under 100 nM. This molecule gave an EC50 in test [2] of under 100 nM.
For the molecule `O=C(NCc1cncc(C(F)(F)F)c1)c1cn(CCCCn2cc(C(=O)NCc3cc(C(F)(F)F)ccn3)nn2)nn1` [Example 141, 1-{4-[4-({[4-(trifluoromethyl)pyridin-2-yl]methyl}carbamoyl)-1H-1,2,3-triazol-1-yl]butyl}-N-{[5-(trifluoromethyl)pyridin-3-yl]methyl}-1H-1,2,3-triazole-4-carboxamide], in test [1], the IC50 was under 100 nM. This molecule also gave an EC50 in test [2] of under 100 nM.
For `O=C(NCc1cncc(C(F)(F)F)c1)c1cn(CCCCn2cc(C(=O)NCc3ccc(C(F)(F)F)cn3)nn2)nn1` [Example 142, 1-{4-[4-({[5-(trifluoromethyl)pyridin-2-yl]methyl}carbamoyl)-1H-1,2,3-triazol-1-yl]butyl}-N-{[5-(trifluoromethyl)pyridin-3-yl]methyl}-1H-1,2,3-triazole-4-\ carboxamide], the IC50 in test [1] is under 100 nM. In test [2], this molecule showed a concentration giving a half-maximal response (EC50) of under 100 nM.
Turning to `O=C(NCc1ccc(C(F)(F)F)nc1)c1cn(CCCCn2cc(C(=O)NCc3cncc(C(F)(F)F)c3)nn2)nn1` [Example 143, N-{[5-(trifluoromethyl)pyridin-3-yl]methyl}-1-{4-[4-({[6-(trifluoromethyl)pyridin-3-yl]methyl}carbamoyl)-1H-1,2,3-triazol-1-yl]butyl}-1H-1,2,3-triazole-4-carboxamide], the IC50 in test [1] is under 100 nM. In test [2], the EC50 is under 100 nM.
As for `O=C(NCc1cncc(C(F)(F)F)c1)c1cn(CCCCn2cc(C(=O)NCc3cccc(C(F)(F)F)n3)nn2)nn1` [Example 144, 1-{4-[4-({[6-(trifluoromethyl)pyridin-2-yl]methyl}carbamoyl)-1H-1,2,3-triazol-1-yl]butyl}-N-{[5-(trifluoromethyl)pyridin-3-yl]methyl}-1H-1,2,3-triazole-4-carboxamide], in test [1], the IC50 is under 100 nM. For the same molecule, the EC50 in test [2] is under 100 nM.
For `O=C(NCc1cc(C(F)(F)F)ccn1)c1cn(CCC(F)Cn2cc(C(=O)NCc3cncc(C(F)(F)F)c3)nn2)nn1` (stereo not shown) [Example 145, 1-{3-fluoro-4-[4-({[5-(trifluoromethyl)pyridin-3-yl]methyl}carbamoyl)-1H-1,2,3-triazol-1-yl]butyl}-N-1{[4-(trifluoromethyl)pyridin-2-yl]methyl}-1H-1,2,3-triazole-4-carboxamide], the IC50 in test [1] was under 100 nM. In test [2], this molecule displayed an EC50 of under 100 nM.
As for `O=C(NCc1cccc(OC(F)(F)F)c1)c1cn(CCCCn2cc(C(=O)NCc3cncc(N4CC(F)(F)C4)c3)nn2)nn1` [Example 146, N-{[5-(3,3-difluoroazetidin-1-yl)pyridin-3-yl]methyl}-1-{4-[4-({[3-(trifluoromethoxy)phenyl]methyl}carbamoyl)-1H-1,2,3-triazol-1-yl]butyl}-1H-1,2,3-triazole-4-carboxamide], the concentration for half-maximal inhibition (IC50) in test [1] was under 100 nM. In test [2], this molecule yielded an EC50 of under 100 nM.
`O=C(NCc1cccc(OC(F)(F)F)c1)c1cn(CCC(F)Cn2cc(C(=O)NCc3cc(C4CC4)ccn3)nn2)nn1` (stereo not shown) [Example 147]: the half-maximal inhibitory concentration (IC50) in test [1] was under 100 nM. In addition, the concentration giving a half-maximal response (EC50) in test [2] is under 100 nM.
Take `O=C(NCc1cc(C2CC2)ccn1)c1cn(CCC(F)Cn2cc(C(=O)NCc3cccc(OC(F)(F)F)c3)nn2)nn1` (stereo not shown) [Example 148, 1-[4-(4-({[4-cyclopropylpyridin-2-yl)methyl]carbamoyl}-1H-1,2,3-triazol-1-yl)-2-fluorobutyl]-N-{[3-(trifluoromethoxy)phenyl]methyl}-1H-1,2,3-triazole-4-carboxamide]: the IC50 in test [1] is under 100 nM. Also, the EC50 in test [2] is under 100 nM.
`CNC(=O)c1cn(CC(F)CCn2cc(C(=O)NCc3cc(C(F)(F)F)ccn3)nn2)nn1` (stereo not shown) [Example 149, 1-{2-fluoro-4-[4-({[4-yl]methyl}carbamoyl)-1H-1,2,3-triazol-1-yl]butyl}-N-methyl-1H-1,2,3-triazole-4-carboxamide]: the IC50 in test [1] lay within 100 to 500 nM. The EC50 in test [2] lay within 500 to 5000 nM.
On the same counts, the results for `CNC(=O)c1cn(CC(F)CCn2cc(C(=O)NCc3cc(OC(F)(F)F)ccc3F)nn2)nn1` (stereo not shown) [Example 150, 1-{2-fluoro-4-[4-({[2-fluoro-5-(trifluoromethoxy)phenyl]methyl}carbamoyl)-1H-1,2,3-triazol-1-yl]butyl}-N-methyl-1H-1,2,3-triazole-4-carboxamide] are 100 to 500 nM and 100 to 500 nM.
On the same counts, the results for `CNC(=O)c1cn(CCC(F)Cn2cc(C(=O)NCc3cncc(C(F)(F)F)c3)nn2)nn1` (stereo not shown) [Example 151, 1-{3-fluoro-4-[4-({[5-(trifluoromethyl)pyridin-3-1-yl]methyl}carbamoyl)-1H-1,2,3-triazol-1-yl]butyl}-N-methyl-1H-1,2,3-triazole-4-carboxamide] are 100 to 500 nM and 500 to 5000 nM.
Take `O=C(NCc1cc(C2CC2)ccn1)c1cn(CCC(F)Cn2cc(C(=O)NCc3cncc(C(F)(F)F)c3)nn2)nn1` (stereo not shown) [Example 152, N-[(4-cyclopropylpyridin-2-yl)methyl]-1-{3-fluoro-4-[4-({[5-(trifluoromethyl)pyridin-3-yl]methyl}carbamoyl)-1H-1,2,3-triazol-1-yl]butyl}-1H-1,2,3-triazole-4-carboxamide]: the IC50 in test [1] was under 100 nM. In test [2], this molecule yielded an EC50 of under 100 nM.
Regarding `CNC(=O)c1cn(CCC(F)Cn2cc(C(=O)NCc3cc(OC(F)(F)F)ccc3F)nn2)nn1` (stereo not shown) [Example 153, 1-{3-fluoro-4-[4-({[2-fluoro-5-(trifluoromethoxy)phenyl]methyl}carbamoyl)-1H-1,2,3-triazol-1-yl]butyl}-N-methyl-1H-1,2,3-triazole-4-carboxamide], in test [1], the IC50 is under 100 nM. The same molecule showed an EC50 in test [2] of 100 to 500 nM.
On the same counts, the results for `CCNC(=O)c1cn(CCC(F)Cn2cc(C(=O)NCc3cc(C(F)(F)F)ccn3)nn2)nn1` (stereo not shown) [Example 154, N-ethyl-1-{3-fluoro-4-[4-({[4-(trifluoromethyl)pyridin-2-yl]methyl}carbamoyl)-1H-1,2,3-triazol-1-yl]butyl}-1H-1,2,3-triazole-4-carboxamide] are 500 to 5000 nM and 500 to 5000 nM.
On the same counts, the results for `O=C(NCc1cn2ccsc2n1)c1cn(CCC(F)Cn2cc(C(=O)NCc3cc(C(F)(F)F)ccn3)nn2)nn1` (stereo not shown) [Example 155, 1-{3-fluoro-4-[4-({[4-(trifluoromethyl)pyridin-2-yl]methyl}carbamoyl)-1H-1,2,3-triazol-1-yl]butyl}-N-{imidazo[2,1-b][1,3]thiazol-6-ylmethyl}-1H-1,2,3-triazole-4-carboxamide] are under 100 nM and 500 to 5000 nM.
